Laboratory results reported in patent US8263596B2, “Kinase inhibitors and method of treating cancer” (University Health Network, priority 2010, dated 2012).

Tests used:
human PLK4 = biological target: T1, human PLK4 (Homo sapiens, UniProt O00444); assay: PLK4 inhibition assay (indirect ELISA); type: biochemical; conditions: read-out: IC50 Ranges PLK4
T1 construct: amino terminal GST fusion of residues 1-391 of human PLK4; made in house; host or cells: E. coli
T1 sequence (O00444 1-391): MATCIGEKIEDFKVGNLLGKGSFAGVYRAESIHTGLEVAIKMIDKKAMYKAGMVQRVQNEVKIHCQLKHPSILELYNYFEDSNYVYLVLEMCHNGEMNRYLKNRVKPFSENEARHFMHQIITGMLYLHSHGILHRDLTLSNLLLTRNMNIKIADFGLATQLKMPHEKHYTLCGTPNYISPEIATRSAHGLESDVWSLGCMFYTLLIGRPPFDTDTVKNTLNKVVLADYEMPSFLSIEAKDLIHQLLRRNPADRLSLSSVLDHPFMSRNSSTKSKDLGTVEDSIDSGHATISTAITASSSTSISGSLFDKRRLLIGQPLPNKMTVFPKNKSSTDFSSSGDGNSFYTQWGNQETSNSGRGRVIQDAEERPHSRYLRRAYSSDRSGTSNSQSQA

Aurora B = Aurora B (Homo sapiens, UniProt Q96GD4); assay: Aurora B inhibition assay (Z-Lyte); type: biochemical; conditions: read-out: IC50 Ranges Aurora B
Chain of Aurora B (Q96GD4 whole entry): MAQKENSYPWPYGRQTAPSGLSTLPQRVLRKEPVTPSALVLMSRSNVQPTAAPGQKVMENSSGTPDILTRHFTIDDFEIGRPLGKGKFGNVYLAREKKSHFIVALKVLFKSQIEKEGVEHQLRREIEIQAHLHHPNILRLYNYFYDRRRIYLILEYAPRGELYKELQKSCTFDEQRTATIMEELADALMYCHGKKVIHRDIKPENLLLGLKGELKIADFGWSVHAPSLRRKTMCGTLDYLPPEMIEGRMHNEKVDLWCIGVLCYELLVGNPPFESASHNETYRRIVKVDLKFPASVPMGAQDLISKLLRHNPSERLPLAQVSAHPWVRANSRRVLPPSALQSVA

Row | Structure (SMILES) | IC50 (human PLK4) [nM] | IC50 (Aurora B) [nM]
1 | COc1ccc2c(c1)[C@]1(C[C@H]1c1ccc3c(-c4ccc(N5CCC(N(C)C)CC5)cc4)n[nH]c3c1)C(=O)N2 [Example A120, (1R,2S)-2-(3-(4-(4-(dimethylamino)piperidin-1-yl)phenyl)-1H-indazol-6-yl)-5′-methoxyspiro[cyclopropane-1,3′-indolin]-2′-one 2,2,2-trifluoroacetate] | < 100 | < 100
2 | CCN1Cc2ccc(/C=C/c3n[nH]c4cc([C@@H]5C[C@@]56C(=O)Nc5ccc(OC)cc56)ccc34)cc2C1 (relative stereo) [Example A190, (1R*,2S*)-2-(3-((E)-2-(2-ethylisoindolin-5-yl)vinyl)-1H-indazol-6-yl)-5′-methoxyspiro[cyclopropane-1,3′-indolin]-2′-one 2,2,2-trifluoroacetate] | < 100 | < 100
3 | CN1CCN(C(=O)c2ccc(-c3n[nH]c4cc([C@@H]5C[C@@]56C(=O)Nc5ccccc56)ccc34)cc2)CC1 (relative stereo) [Example A156, (1R*,2S*)-2-(3-(4-(4-methylpiperazine-1-carbonyl)phenyl)-1H-indazol-6-yl)spiro[cyclopropane-1,3′-indolin]-2′-one 2,2,2-trifluoroacetate] | < 100 | 100 to 1000
4 | COc1ccc2c(c1)[C@]1(C[C@H]1c1ccc3c(-c4ccc(CN5CCN(C)CC5)cc4)n[nH]c3c1)C(=O)N2 (relative stereo) [Example A140, (1R*,2S*)-5′-methoxy-2-(3-(4-((4-methylpiperazin-1-yl)methyl)phenyl)-1H-indazol-6-yl)spiro[cyclopropane-1,3′-indolin]-2′-one bis-2,2,2-trifluoro acetate] | < 100 | < 100
5 | O=C1Nc2ncc(Br)cc2[C@]12C[C@H]2c1ccc2cn[nH]c2c1 (racemic) [Example A12, (1R*,2S*)-5′-bromo-2-(1H-indazol-6-yl)spiro[cyclopropane-1,3′-pyrrolo[2,3-b]pyridin]-2′(1′H)-one] | 100 to 1000 | –
6 | COc1ccc2c(c1)[C@]1(C[C@H]1c1ccc3c(-c4ccc(N5CCC(O)CC5)cc4)n[nH]c3c1)C(=O)N2 (relative stereo) [Example A118, (1R*,2S*)-2-(3-(4-(4-hydroxypiperidin-1-yl)phenyl)-1H-indazol-6-yl)-5′-methoxyspiro[cyclopropane-1,3′-indolin]-2′-one 2,2,2-trifluoroacetate] | < 100 | –

The remaining lines, values ahead:

Row | IC50 (human PLK4) [nM] | IC50 (Aurora B) [nM] | Structure (SMILES)
7 | < 100 | 100 to 1000 | CN1CCN(Cc2ccc(-c3n[nH]c4cc([C@@H]5C[C@@]56C(=O)Nc5ccccc56)ccc34)cc2)CC1 (relative stereo) [Example A155, (1R*,2S*)-2-(3-(4-((4-methylpiperazin-1-yl)methyl)phenyl)-1H-indazol-6-yl)spiro[cyclopropane-1,3′-indolin]-2′-one bis-2,2,2-trifluoroacetate]
8 | < 100 | < 100 | CN(C)Cc1cccc(/C=C/c2n[nH]c3cc([C@@H]4C[C@@]45C(=O)Nc4ccccc45)ccc23)c1 (relative stereo) [Example A162, (1R*,2S*)-(E)-2-(3-(3-((dimethylamino)methyl)styryl)-1H-indazol-6-yl) spiro[cyclopropane-1,3′-indolin]-2′-one 2,2,2-trifluoroacetate]
9 | 100 to 1000 | – | O=C1Nc2ccccc2[C@]12C[C@H]2c1ccc2c(-c3cccc(CN4CCOCC4)c3)n[nH]c2c1 (relative stereo) [Example A153, (1R*,2S*)-2-(3-(3-(morpholinomethyl)phenyl)-1H-indazol-6-yl)spiro [cyclopropane-1,3′-indolin]-2′-one 2,2,2-trifluoroacetate]
10 | – | < 100 | CN1CCN(c2ccc(-c3n[nH]c4cc([C@@H]5C[C@@]56C(=O)Nc5ccc(F)cc56)ccc34)cn2)CC1 (relative stereo) [Example A210, (1R*,2S*)-5′-fluoro-2-(3-(6-(4-methylpiperazine-1-yl)pyridine-3-yl)-1H-indazol-6-yl)-spiro[cyclopropane-1,3′-indolin]-2′-one]
